Laboratory results as given in patent publication US6747027B1, “Thiol sulfonamide metalloprotease inhibitors” (Pharmacia Corporation, priority 1996, dated 2004).
Counter-ions that a name gives are not always drawn.

Legend:
recombinant human MMP-13 = target: T1, recombinant human MMP-13 (Homo sapiens, UniProt P45452); test: In vitro metalloprotease inhibition, fluorogenic peptide assay (MMP-13); assay type: biochemical; details: recombinant human MMP-13, APMA activated; fluorogenic MCA peptide substrate 4 uM; pH 7.5, room temperature
T1 construct: made in house
Description: (§1) Certain of the compounds prepared in the manner described in Examples 1 to 223 were tested for activity by an in vitro assay. Following the procedures of Knight et al., FEBS Lett. 296(3):263 (1992). Briefly, 4-aminophenylmercuric acetate (APMA) or trypsin activated MMPs were incubated with various concentrations of the inhibitor compound at room temperature for 5 minutes (0.02% 2-mercapto-ethanol added to buffer for thiol compounds with 5 minutes or overnight incubation). More specifically, recombinant human MMP-13 and MMP-1 enzymes were prepared in laboratories of the inventors' employer. MMP-13 was expressed in baculovirus as a proenzyme, and purified first over a heparin agarose column and then over a chelating zinc chloride column. The proenzyme was activated by APMA for use in the assay. MMP-1 expressed in transfected HT-1080 was provided by Dr. Howard Welgus of Washington University, St. Louis, Mo. The enzyme was also activated using APMA and was then purified over a hydroxamic acid column.
(§2) The enzyme substrate is a methoxycoumarin-containing polypeptide having the following sequence:
(§3) MCA-ProLeuGlyLeuDpaAlaArgNH^2, wherein MCA is methoxycoumarin and Dpa is 3-(2,4-dinitrophenyl)-L-2,3-diaminopropionyl alanine. This substrate is commercially available from Baychem as product M-1895.
(§4) The buffer used for assays contained 100 mM Tris-HCl, 100 mM NaCl, 10 mM CaCl2 and 0.05 percent polyethyleneglycol(23) lauryl ether at a pH value of 7.5. Assays were carried out at room temperature, and dimethyl sulfoxide (DMSO) at a final concentration of 1 percent was used to dissolve inhibitor compound.
(§5) The assayed inhibitor compound in DMSO/buffer solution was compared to an equal amount of DMSO/buffer with no inhibitor as control using microfluor™ white plates (Dynatech). The inhibitor or control solution was maintained in the plate for 10 minutes and the substrate was added to provide a final concentration of 4 uM.
(§6) In the absence of inhibitor activity, a fluorogenic peptide is cleaved at the gly-leu peptide bond, separating the highly fluorogenic peptide from a 2.4-dinitrophenyl quencher, resulting in an increase of fluorescence intensity (excitation at 328 nm/emmision at 415 nm). Inhibition was measured as a reduction in fluorescent intensity as a function of inhibitor concentration, using a Perkin Elmer L550 plate reader. The IC50 values were calculated from those values. The results are set forth in the Inhibition Table below, reported in terms of IC50 to three significant figures.

recombinant human MMP-1 = target: T2, recombinant human MMP-1 (Homo sapiens, UniProt P03956); test: In vitro metalloprotease inhibition, fluorogenic peptide assay (MMP-1); assay type: biochemical; details: recombinant human MMP-1, APMA activated; fluorogenic MCA peptide substrate 4 uM; pH 7.5, room temperature
T2 construct: made in house; host or cells: transfected HT-1080 cells (provided by Dr. Howard Welgus, Washington University)
T2 sequence (P03956 100-469): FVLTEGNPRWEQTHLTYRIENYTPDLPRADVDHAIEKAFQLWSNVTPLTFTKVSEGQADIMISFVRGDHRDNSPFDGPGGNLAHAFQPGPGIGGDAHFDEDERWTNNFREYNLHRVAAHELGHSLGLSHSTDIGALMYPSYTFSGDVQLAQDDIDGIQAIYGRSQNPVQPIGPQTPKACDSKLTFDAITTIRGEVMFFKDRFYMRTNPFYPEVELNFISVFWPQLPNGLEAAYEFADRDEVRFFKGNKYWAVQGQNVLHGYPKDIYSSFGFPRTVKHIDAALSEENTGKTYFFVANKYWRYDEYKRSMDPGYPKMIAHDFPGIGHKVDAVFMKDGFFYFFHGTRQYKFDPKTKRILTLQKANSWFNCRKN
Description: as §1, §2, §3, §4, §5, §6

IC50 (recombinant human MMP-13) [nM]	IC50 (recombinant human MMP-1) [nM]	Compound
0.61	309	C[C@H](CS)N(C)S(=O)(=O)c1ccc(Oc2ccccc2)cc1 [Example 40E, N-(2-Mercapto-1R-methylethyl)-N-methyl-4-(phenoxy)benzenesulfonamide]
21.5	> 10000	CCCCCOc1ccc(S(=O)(=O)N(C)[C@H](C)CS)cc1 [Example 39C, N-(2-Mercapto-1R-methylethyl)-N-methyl-4-(n-pentyloxy)benzenesulfonamide]
0.7	6000	C[C@H](CS)N(CCN1CCCCC1)S(=O)(=O)c1ccc(Sc2ccccc2)cc1 [Example 92D, N-(2-Mercapto-1R-methylethyl)-N-[2-(1-piperidino)ethyl]-4-(thiophenyl)benzenesulfonamide Hydrochloride]
> 10000	> 10000	COc1ccc(S(=O)(=O)N(Cc2ccccc2)[C@H](CS)C(C)C)cc1 [Example 33D, N-[(1S-Mercaptomethyl)-2-methylpropyl]-4-methoxy-N-(phenylmethyl)benzenesulfonamide]
200	7000	C[C@H](CS)N(Cc1ccccc1)S(=O)(=O)c1ccc2c(c1)OCO2 [Example 21C, N-(2-Mercapto-1R-methylethyl)-N-(phenylmethyl)-5-(1,3-benzodioxol-5-yl)sulfonamide]
1800	8000	COc1ccc(S(=O)(=O)N(Cc2ccccc2)C(CS)CC(C)C)cc1 (racemic) [Example 29F, N-[1-(Mercaptomethyl)-3-methylbutyl]-N-(phenylmethyl)-4-methoxybenzenesulfonamide]

The remaining lines, values behind:

Compound	IC50 (recombinant human MMP-13) [nM]	IC50 (recombinant human MMP-1) [nM]
N-(2-mercapto-1R-methylethyl)-4-n-pentyl)benzenesulfonamide [Example 71]	40	> 10000
CCCCOc1ccc(S(=O)(=O)N(C)[C@H](C)CS)cc1 [Example 22C, N-(2-mercapto-1R-methylethyl)-N-methyl-4-(n-butoxybenzene)sulfonamide]	13	3400
COCCOc1ccc(S(=O)(=O)N(CCN2CCOCC2)[C@H](C)CS)cc1 [Example 114]	45	> 10000
C[C@H](CS)NS(=O)(=O)c1ccc(S(C)(=O)=O)cc1 [Example 147]	> 10000	< 10000
COc1ccc(S(=O)(=O)N(Cc2ncc[nH]2)[C@H](C)CS)cc1 [Example 111]	40	2000
CCCCOc1ccc(S(=O)(=O)N[C@@H](CS)C(=O)N[C@@H](Cc2ccccc2)C(N)=O)cc1 [Example 186]	1100	> 10000
N-(2-mercapto-1R-methylethyl)-4-n-propyl)benzenesulfonamide [Example 70]	440	> 10000
C[C@H](CSC(=O)c1cccs1)N(CCN1CCOCC1)S(=O)(=O)c1ccc(Sc2ccccc2)cc1 [Example 132]	47	> 10000
C[C@H](CS)NS(=O)(=O)c1ccc(N=Nc2ccccc2)cc1 [Example 89, N-(2-mercapto-1R-methylethyl)-4-phenylazobenzenesulfonamide]	90	> 10000
C[C@H](CS)NS(=O)(=O)c1ccc(F)cc1 [Example 63, N-(2-mercapto-1R-methylethyl)-4-fluorobenzenesulfonamide]	2500	300
C[C@H](CSC(=O)C(C)(C)C)N(CCN1CCOCC1)S(=O)(=O)c1ccc(Sc2ccccc2)cc1 [Example 133]	4200	> 10000
C[C@H](CS)N(CCN1CCCCC1)S(=O)(=O)CCCSc1ccccc1 [Example 52, N-(2-Mercapto-1R-methylethyl)-N-[2-(1-piperidino)ethyl](3-thiophenylpropyl)sulphonamide]	45	> 10000
COc1ccc(S(=O)(=O)N(Cc2ccccc2)C(CSC(C)=O)C(C)C)cc1 (stereo not shown) [Example 33C]	345	> 10000
C[C@H](CS)NS(=O)(=O)c1ccc(Cc2ncc(C(F)(F)F)cc2Cl)s1 [Example 155]	> 10000	> 10000
CC(=O)SC[C@@H](C(N)=O)N(CCN1CCOCC1)S(=O)(=O)c1ccc(Sc2ccccc2)cc1 [Example 216]	200	> 10000
COc1ccc(S(=O)(=O)N(CC(C)C)[C@H](C)CS)cc1 [Example 14C, N-(2-Mercapto-1R-methylethyl)-N-(2-methylpropyl)-4-methoxybenzenesulfonamide]	46	1060

Compound	IC50 (recombinant human MMP-13) [nM]	IC50 (recombinant human MMP-1) [nM]
N-(1R-Mercaptomethyl)propyl-N-methyl-4-(n-butoxy)benzenesulfonamide [Example 23C]	150	4000
COc1ccc(S(=O)(=O)N(C)[C@H](C)CS)cc1 [Example 11D, N-(2-Mercapto-1R-methylethyl)-N-methyl-4-methoxybenzenesulfonamide]	32.5	300
C[C@H](CS)N(CCN1CCOCC1)S(=O)(=O)c1ccc(Oc2ccccc2)cc1 [Example 113]	0.25	125
CC(=O)Nc1ccc(S(=O)(=O)N(C)[C@@H](CS)C(N)=O)cc1 [Example 203]	170	> 10000
N-(2-Mercapto-1S-methylethyl)-N-(phenylmethyl)-4-methoxybenzenesulfonamide [Example 13C]	2000	> 10000
CCCCOc1ccc(S(=O)(=O)N(CCN2CCOCC2)[C@H](C)CS)cc1 [Example 45C, N-(2-Mercapto-1R-methylethyl)-N-[2-(4-morpholino)ethyl]-4-(n-butoxy)benzenesulfonamide]	3	3200
C[C@H](CS)NS(=O)(=O)c1ccc(C#N)cc1 [Example 76, N-(2-mercapto-1R-methylethyl)-4-cyanobenzenesulfonamide]	8800	3500
CCCCOc1ccc(S(=O)(=O)N(CCN2CCCC2)[C@H](C)CS)cc1 [Example 47C, N-(2-Mercapto-1R-methylethyl)-N-[2-(1-pyrrolidino)ethyl]-4-(n-butoxy)benzenesulfonamide]	4.47	4830
COc1ccc(S(=O)(=O)N[C@H](C)CS)cc1 [Example 16B, N-(2-Mercapto-1R-methylethyl)-4-methoxybenzenesulfonamide]	245	7000
C[C@H](CS)N(C)S(=O)(=O)c1ccc(-c2ccccn2)s1 [Example 156]	7.3	1070
C[C@H](CS)NS(=O)(=O)c1ccc(Sc2ccccc2)cc1 [Example 101]	30	> 10000
C[C@H](CS)N(CCN1CCOCC1)S(=O)(=O)c1ccc(Oc2ccc(CCC(=O)O)cc2)cc1 [Example 118]	14	7000
C[C@H](CS)N(CCN1CCOCC1)S(=O)(=O)c1ccc(Oc2ccc(CCC(=O)O)cc2)cc1 [Example 117]	15	8000
C[C@H](CS)NS(=O)(=O)c1ccc(/N=N/c2ccc(N(C)C)cc2)cc1 [Example 217]	1.5	> 10000
COc1ccc(S(=O)(=O)N(CCS)Cc2ccccc2)cc1 [Example 7C, N-(2-Mercaptoethyl)-N-(phenylmethyl)-4-methoxybenzenesulfonamide]	300	4000
CCCCOc1ccc(S(=O)(=O)N[C@@H](CS)C(N)=O)cc1 [Example 201]	3.3	7000
